# Test system: Wnt activity
# Test: Wnt activity reporter assay (SP5 promoter firefly luciferase in SW480 cells)
# Type: cell-based
# Conditions: Homo sapiens; SW480 cells bearing SP5 promoter luciferase reporter; 24 h after compound addition; read-out: Wnt inhibition
# Excerpt: The above synthesized compounds were screened using the assay procedure for Wnt activity described below.
# Reporter cell lines can be generated by stably transducing cells of cancer cell lines (e.g., colon cancer) with a lentiviral construct that include a wnt-responsive promoter driving expression of the firefly luciferase gene.
# Lentiviral constructs can be made in which the SP5 promoter, a promoter having eight TCF/LEF binding sites derived from the SP5 promoter, is linked upstream of the firefly luciferase gene. The lentiviral constructs can also include a hygromycin resistance gene as a selectable marker. The SP5 promoter construct can be used to transduce SW480 cells, a colon cancer cell line having a mutated APC gene that generates a truncated APC protein, leading to de-regulated accumulation of β-catenin.
# Cultured SW480 cells bearing a reporter construct can be distributed at approximately 10,000 cells per well into 384 well multiwell plates. Compounds from a small molecule compound library can then be added to the wells in half-log dilutions using a three micromolar top concentration. A series of control wells for each cell type receive only buffer and compound solvent. Twenty-four hours after the addition of compound, reporter activity for luciferases can be assayed, for example, by addition of the BrightGlo luminescence reagent (Promega) and the Victor3 plate reader (Perkin Elmer). Readings can be normalized to DMSO only treated cells, and normalized activities can then be used in the IC50 calculations.
row,Structure (SMILES),IC50 [µM]
1,"c1cc(-c2cncc3[nH]c(-c4n[nH]c5ccc(-c6cncc(CN7CCCC7)c6)cc45)nc23)ccn1 [Compound 163, 7-(Pyridin-4-yl)-2-(5-(5-(pyrrolidin-1-ylmethyl)pyridin-3-yl)-1H-indazol-3-yl)-3H-imidazo[4,5-c]pyridine]",0.296
2,"c1cc(-c2cncc3[nH]c(-c4n[nH]c5ccc(-c6cncc(CN7CCCCC7)c6)cc45)nc23)ccn1 [Compound 164, 2-(5-(5-(Piperidin-1-ylmethyl)pyridin-3-yl)-1H-indazol-3-yl)-7-(pyridin-4-yl)-3H-imidazo[4,5-c]pyridine]",> 6
3,"O=C(Nc1cncc(-c2ccc3[nH]nc(-c4nc5c(-c6ccncc6)cncc5[nH]4)c3c2)c1)C1CCCC1 [Compound 170, N-(5-(3-(7-(Pyridin-4-yl)-3H-imidazo[4,5-c]pyridin-2-yl)-1H-indazol-5-yl)pyridin-3-yl)cyclopentanecarboxamide]",7
4,"c1cc(-c2cncc3[nH]c(-c4n[nH]c5ccc(-c6cncc(CNCC7CCCC7)c6)cc45)nc23)ccn1 [Compound 173, 1-Cyclopentyl-N-((5-(3-(7-(pyridin-4-yl)-3H-imidazo[4,5-c]pyridin-2-yl)-1H-indazol-5-yl)pyridin-3-yl)methyl)methanamine]",0.845
5,"CCC(=O)Nc1cncc(-c2ccc3[nH]nc(-c4nc5c(-c6ccccn6)cncc5[nH]4)c3c2)c1 [Compound 174, N-(5-(3-(7-(Pyridin-2-yl)-3H-imidazo[4,5-c]pyridin-2-yl)-1H-indazol-5-yl)pyridin-3-yl)propionamide]",0.003
6,"c1ccc(-c2cncc3[nH]c(-c4n[nH]c5ccc(-c6cccnc6)cc45)nc23)nc1 [Compound 177, 7-(Pyridin-2-yl)-2-(5-(pyridin-3-yl)-1H-indazol-3-yl)-3H-imidazo[4,5-c]pyridine]",0.002
7,"CN(C)Cc1cncc(-c2ccc3[nH]nc(-c4nc5c(-c6ccccn6)cncc5[nH]4)c3c2)c1 [Compound 186, N,N-Dimethyl-1-(5-(3-(7-(pyridin-2-yl)-3H-imidazo[4,5-c]pyridin-2-yl)-1H-indazol-5-yl)pyridin-3-yl)methanamine]",0.038
8,"CC(C)CC(=O)Nc1cncc(-c2ccc3[nH]nc(-c4nc5c(N6CCCCC6)cncc5[nH]4)c3c2)c1 [Compound 199, 3-Methyl-N-(5-(3-(7-(piperidin-1-yl)-3H-imidazo[4,5-c]pyridin-2-yl)-1H-indazol-5-yl)pyridin-3-yl)butanamide]",0.311
9,"Cc1ccncc1-c1ccc2[nH]nc(-c3nc4c(N5CCCCC5)cncc4[nH]3)c2c1 [Compound 202, 2-(5-(4-Methylpyridin-3-yl)-1H-indazol-3-yl)-7-(piperidin-1-yl)-3H-imidazo[4,5-c]pyridine]",0.535

# Further lines, results first:
row,IC50 [µM],Structure (SMILES)
1,0.041,"CC(C)(C)C(=O)Nc1cncc(-c2ccc3[nH]nc(-c4nc5c(N6CCCCC6)cncc5[nH]4)c3c2)c1 [Compound 205, N-(5-(3-(7-(Piperidin-1-yl)-3H-imidazo[4,5-c]pyridin-2-yl)-1H-indazol-5-yl)pyridin-3-yl)pivalamide]"
2,0.42,"c1ncc(-c2ccc3[nH]nc(-c4nc5c(N6CCCCC6)cncc5[nH]4)c3c2)cc1CN1CCCC1 [Compound 211, 7-(Piperidin-1-yl)-2-(5-(5-(pyrrolidin-1-ylmethyl)pyridin-3-yl)-1H-indazol-3-yl)-3H-imidazo[4,5-c]pyridine]"
3,0.042,"CCCC(=O)Nc1cncc(-c2ccc3[nH]nc(-c4nc5c(N6CCCCC6)cncc5[nH]4)c3c2)c1 [Compound 214, N-(5-(3-(7-(Piperidin-1-yl)-3H-imidazo[4,5-c]pyridin-2-yl)-1H-indazol-5-yl)pyridin-3-yl)butyramide]"
4,0.039,"O=C(Nc1cncc(-c2ccc3[nH]nc(-c4nc5c(N6CCCCC6)cncc5[nH]4)c3c2)c1)C1CCC1 [Compound 217, N-(5-(3-(7-(Piperidin-1-yl)-3H-imidazo[4,5-c]pyridin-2-yl)-1H-indazol-5-yl)pyridin-3-yl)cyclobutanecarboxamide]"
